In PubChem BioAssay AID1195 (EPA DSSTox, 2008):

Tested on: human maximum recommended daily dose, FDA database
Assay: DSSTox (FDAMDD) FDA Maximum (Recommended) Daily Dose Database
Details: active compounds read low
In short: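 MRDD values come from clinical trials with daily oral dosing, usually for 3–12 months, for the average adult, in mg/day converted to mg/kg-bw/day assuming 60 kg. Antineoplastic mg/m2 doses are divided by 37. Activity score maps log10(1/MRDD mmol) onto 1–100.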

[1] = TherapeuticCategory: antidepressant
[2] = TherapeuticCategory: vasodilator
[3] = TherapeuticCategory: antineoplastic
[4] = TherapeuticCategory: antihistaminic
[5] = TherapeuticCategory: antibacterial
[6] = TherapeuticCategory: antipsychotic
[7] = TherapeuticCategory: skeletal muscle relaxant
[8] = TherapeuticCategory: glucocorticoid
[9] = TherapeuticCategory: anticonvulsant

CN(C)CCN1C(=O)c2ccccc2N(C)c2ccccc21
maximum recommended daily dose (mmol/kg-bw/day) [1]: 0.0406

CC(=O)Oc1cc(C(C)C)c(OCCN(C)C)cc1C
maximum recommended daily dose (mmol/kg-bw/day) [2]: 0.0191

N[C@@H](Cc1cc(I)c(Oc2cc(I)c(O)c(I)c2)c(I)c1)C(=O)O
maximum recommended daily dose (mmol/kg-bw/day) (TherapeuticCategory: hyperthyroidism): 1.07e-05

C[C@]12CC[C@H]3[C@@H](CC[C@@]45O[C@@H]4C(O)=C(C#N)C[C@]35C)[C@@H]1CC[C@@H]2O
maximum recommended daily dose (mmol/kg-bw/day) (TherapeuticCategory: adrenocortical suppressant, treatment of breast cancer): 0.0243

O=NN(CCCl)C(=O)N[C@@H]1[C@@H](O)[C@H](O)[C@@H](CO)O[C@@H]1O
maximum recommended daily dose (mmol/kg-bw/day) [3]: 0.0129

CCN(CC)C(C)CN1c2ccccc2Sc2ccccc21 (stereo unspecified)
maximum recommended daily dose (mmol/kg-bw/day) (TherapeuticCategory: antiparkinsonian, anticholinergic): 0.032

CC(=O)N=c1sc(S(N)(=O)=O)nn1C
maximum recommended daily dose (mmol/kg-bw/day) (TherapeuticCategory: diuretic): 0.0212

CN(C)CCOC(c1ccc(Cl)cc1)c1ccccn1 (stereo unspecified)
maximum recommended daily dose (mmol/kg-bw/day) [4]: 0.00138

CS(=O)(=O)OCCCCOS(C)(=O)=O
maximum recommended daily dose (mmol/kg-bw/day) [3]: 0.00054

CCOC(=O)[C@H](CCc1ccccc1)N[C@H]1CCc2ccccc2N(CC(=O)O)C1=O
maximum recommended daily dose (mmol/kg-bw/day) (TherapeuticCategory: antihypertensive, ACE inhibitor): 0.00313

C[C@@H]1C[C@H]2[C@@H]3CCC4=CC(=O)C=C[C@]4(C)[C@@]3(F)[C@@H](O)C[C@]2(C)[C@@]1(O)C(=O)CO
maximum recommended daily dose (mmol/kg-bw/day) (TherapeuticCategory: glucocorticoid, anti inflammatory): 0.000382

Cc1ncc(C[n+]2csc(CCO)c2C)c(N)n1
maximum recommended daily dose (mmol/kg-bw/day) (TherapeuticCategory: enzyme cofactor vitamin): 0.00555

CC(C)NCC1CCc2cc(CO)c([N+](=O)[O-])cc2N1 (stereo unspecified)
maximum recommended daily dose (mmol/kg-bw/day) (TherapeuticCategory: anthelmintic): 0.215

CCN(CC)C(=O)c1ccc(O)c(OC)c1
maximum recommended daily dose (mmol/kg-bw/day) (TherapeuticCategory: central and respiratory stimulant): 0.0187

CC1(C)O[C@@H]2[C@@H](CO[C@@]3(COS(N)(=O)=O)OC(C)(C)O[C@@H]23)O1
maximum recommended daily dose (mmol/kg-bw/day) (TherapeuticCategory: antiepileptic): 0.0197

CC1(C)S[C@@H]2[C@H](NC(=O)[C@H](C(=O)O)c3ccsc3)C(=O)N2[C@H]1C(=O)O
maximum recommended daily dose (mmol/kg-bw/day) [5]: 0.78

CCCCCCCCCCC(=O)O[C@H]1CC[C@H]2[C@@H]3CCc4cc(O)ccc4[C@H]3CC[C@]12C
maximum recommended daily dose (mmol/kg-bw/day) (TherapeuticCategory: estrogen): 0.00113

COc1ccc2[nH]cc(CCNC(C)=O)c2c1
maximum recommended daily dose (mmol/kg-bw/day) (TherapeuticCategory: antioxidant): 0.000359

CN1CCCC(n2nc(Cc3ccc(Cl)cc3)c3ccccc3c2=O)CC1 (stereo unspecified)
maximum recommended daily dose (mmol/kg-bw/day) (TherapeuticCategory: antiallergic, antiasthmatic, antihistaminic): 0.000348

CCC(Cc1c(I)cc(I)c(N)c1I)C(=O)O (stereo unspecified)
maximum recommended daily dose (mmol/kg-bw/day) (TherapeuticCategory: diagnostic aid): 0.175

COC1[C@@H](O[C@@H]2O[C@H](C)[C@@H](O[C@H]3C[C@@](C)(O)[C@H](OC(=O)CC(C)C)[C@H](C)O3)[C@H](N(C)C)[C@H]2O)[C@@H](CC=O)C[C@@H](C)[C@@H](O)/C=C/C=C/C[C@@H](C)OC(=O)C[C@H]1OC(C)=O (stereo partly specified)
maximum recommended daily dose (mmol/kg-bw/day) [5]: 0.0604

CN1CCN(C2=Nc3ccccc3Sc3ccc(Cl)cc32)CC1
maximum recommended daily dose (mmol/kg-bw/day) [6]: 0.000727

Cc1ccc(Cl)c(OCC(O)CNC(C)(C)C)c1 (stereo unspecified)
maximum recommended daily dose (mmol/kg-bw/day) (TherapeuticCategory: antihypertensive, antianginal, antiarrhythmic, antiglaucomic): 0.0245

C[C@]1(O)CC[C@H]2[C@@H]3CCC4=CC(=O)CC[C@@H]4[C@H]3CC[C@@]21C
maximum recommended daily dose (mmol/kg-bw/day) (TherapeuticCategory: androgen): 0.00173

Oc1ccc2c(c1)[C@@]13CCCC[C@@]1(O)[C@@H](C2)N(CC1CCC1)CC3
maximum recommended daily dose (mmol/kg-bw/day) (TherapeuticCategory: narcotic analgesic): 0.000815

C[N+]1([O-])[C@@H]2CC[C@H]1CC(OC(=O)C(CO)c1ccccc1)C2 (stereo partly specified)
maximum recommended daily dose (mmol/kg-bw/day) (TherapeuticCategory: anticholinergic): 0.000164

C[N+](C)(C)CCOC(=O)CCC(=O)OCC[N+](C)(C)C
maximum recommended daily dose (mmol/kg-bw/day) [7]: 0.00304

COc1cc(C(=O)N2CCOCC2)cc(OC)c1OC
maximum recommended daily dose (mmol/kg-bw/day) (TherapeuticCategory: sedative): 0.178

CC(O)(P(=O)(O)O)P(=O)(O)O
maximum recommended daily dose (mmol/kg-bw/day) (TherapeuticCategory: calcium regulator): 0.0971

NC(=O)CS(=O)C(c1ccccc1)c1ccccc1 (stereo unspecified)
maximum recommended daily dose (mmol/kg-bw/day) (TherapeuticCategory: CNS stimulant, adrenergic): 0.0122

CC[N+](CC)(CC)CCOc1cccc(OCC[N+](CC)(CC)CC)c1OCC[N+](CC)(CC)CC
maximum recommended daily dose (mmol/kg-bw/day) [7]: 0.00224

COc1cc(C[C@@H]2NCCc3cc(O)c(O)cc32)cc(OC)c1OC
maximum recommended daily dose (mmol/kg-bw/day) (TherapeuticCategory: bronchodilator): 0.000869

CC(C)(C)NCC(O)COc1cccc2c1CCCC2=O (stereo unspecified)
maximum recommended daily dose (mmol/kg-bw/day) (TherapeuticCategory: antiglaucoma): 0.000858

CN1CC[C@]23c4c5ccc(O)c4O[C@H]2C(=O)CC[C@H]3[C@H]1C5
maximum recommended daily dose (mmol/kg-bw/day) (TherapeuticCategory: analgesic): 0.0014

C=CCC1(C(C)C)C(=O)NC(=O)NC1=O
maximum recommended daily dose (mmol/kg-bw/day) (TherapeuticCategory: sedative, hypnotic): 0.0127

CCCCCCCCCCC[C@@H](C[C@@H]1OC(=O)[C@H]1CCCCCC)OC(=O)C(CC(C)C)NC=O (stereo partly specified)
maximum recommended daily dose (mmol/kg-bw/day) (TherapeuticCategory: antiobesity): 0.0121

C[C@]12CCC(=O)C=C1CC[C@@H]1[C@@H]2C(=O)C[C@@]2(C)[C@H]1CC[C@]2(O)C(=O)CO
maximum recommended daily dose (mmol/kg-bw/day) [8]: 0.0139

O=C(O)C(S)C(S)C(=O)O (stereo unspecified)
maximum recommended daily dose (mmol/kg-bw/day) (TherapeuticCategory: antidote for heavy metal poisoning, radioactive imaging agent): 0.0549

O=C(CCBr)N1CCN(C(=O)CCBr)CC1
maximum recommended daily dose (mmol/kg-bw/day) [3]: 0.00843

C=CC[C@]1(O)CC[C@H]2[C@@H]3CCC4=CCCC[C@@H]4[C@H]3CC[C@@]21C
maximum recommended daily dose (mmol/kg-bw/day) (TherapeuticCategory: progestogen): 0.000832

C[C@H]1O[C@@H](O[C@H]2CC[C@@]3(C)[C@H](CC[C@@H]4[C@@H]3C[C@@H](O)[C@]3(C)[C@@H](C5=CC(=O)OC5)CC[C@]43O)C2)C[C@H](O)[C@@H]1O[C@H]1C[C@H](O)[C@H](O[C@H]2C[C@H](O)[C@H](O[C@@H]3O[C@H](CO)[C@@H](O)[C@H](O)[C@H]3O)[C@@H](C)O2)[C@@H](C)O1
maximum recommended daily dose (mmol/kg-bw/day) (TherapeuticCategory: cardiotonic): 8.48e-08

CO[C@H]1[C@@H](O)[C@H](N)[C@@H](O[C@H]2O[C@H]([C@H](C)N)CC[C@H]2N)[C@H](O)[C@@H]1N(C)C(=O)CN
maximum recommended daily dose (mmol/kg-bw/day) [5]: 0.0164

CCC1NC(=O)c2cc(S(N)(=O)=O)c(Cl)cc2N1 (stereo unspecified)
maximum recommended daily dose (mmol/kg-bw/day) (TherapeuticCategory: diuretic): 0.0115

CCOC(=O)c1ncn2c1CN(C)C(=O)c1cc(F)ccc1-2
maximum recommended daily dose (mmol/kg-bw/day) (TherapeuticCategory: benzodiazepine antagonist): 0.000165

CCC[C@@H]1C[C@@H](C(=O)N[C@@H]([C@H]2O[C@H](SC)[C@H](O)[C@@H](O)[C@H]2O)[C@@H](C)O)N(C)C1
maximum recommended daily dose (mmol/kg-bw/day) [5]: 0.0819

CCC(=O)c1ccc2c(c1)N(CCCN1CCN(CCO)CC1)c1ccccc1S2
maximum recommended daily dose (mmol/kg-bw/day) [6]: 0.0157

CC(C)(O)c1ccccc1CC[C@@H](SCC1(CC(=O)O)CC1)c1cccc(/C=C/c2ccc3ccc(Cl)cc3n2)c1
maximum recommended daily dose (mmol/kg-bw/day) (TherapeuticCategory: antiasthmatic): 0.000285

Cc1oncc1C(=O)Nc1ccc(C(F)(F)F)cc1
maximum recommended daily dose (mmol/kg-bw/day) (TherapeuticCategory: antirheuematic, immunosuppressant): 0.00123

O=C(O)COCCN1CCN(C(c2ccccc2)c2ccc(Cl)cc2)CC1 (stereo unspecified)
maximum recommended daily dose (mmol/kg-bw/day) [4]: 0.0432

CCC(C)(C)N=C(N)NC#N
maximum recommended daily dose (mmol/kg-bw/day) (TherapeuticCategory: antihypertensive): 0.0674

C[C@@H]1C/C=C/C=C/C=C/C=C/[C@H](O[C@@H]2O[C@H](C)[C@@H](O)[C@H](N)[C@@H]2O)C[C@@H]2O[C@](O)(C[C@@H](O)C[C@H]3O[C@@H]3/C=C/C(=O)O1)C[C@H](O)[C@H]2C(=O)O
maximum recommended daily dose (mmol/kg-bw/day) [5]: 0.000413

CN(C)CCC=C1c2ccccc2CCc2ccccc21
maximum recommended daily dose (mmol/kg-bw/day) [1]: 0.018

O=C1CN=C(c2ccccc2Cl)c2cc([N+](=O)[O-])ccc2N1
maximum recommended daily dose (mmol/kg-bw/day) [9]: 0.000421

CCOC(=O)n1ccn(C)c1=S
maximum recommended daily dose (mmol/kg-bw/day) (TherapeuticCategory: thyroid inhibitor): 0.00537

CCN(CC)CCOC(=O)C(Cc1cccc2ccccc12)CC1CCCO1 (stereo unspecified)
maximum recommended daily dose (mmol/kg-bw/day) [2]: 0.0261

CCCC1C(=O)N2C(N(C)C)=Nc3ccc(C)cc3N2C1=O (stereo unspecified)
maximum recommended daily dose (mmol/kg-bw/day) (TherapeuticCategory: analgesic, anti inflammatory): 0.0892

CCOC(=O)N1CCC(=C2c3ccc(Cl)cc3CCc3cccnc32)CC1
maximum recommended daily dose (mmol/kg-bw/day) [4]: 0.000436

CC(=O)OCC(=O)[C@@]1(O)[C@@H](C)C[C@H]2[C@@H]3CCC4=CC(=O)C=C[C@]4(C)[C@@]3(F)[C@@H](O)C[C@@]21C
maximum recommended daily dose (mmol/kg-bw/day) [8]: 0.000345

OC1C(O)C(O)C(O)C(O)C1O (stereo unspecified)
maximum recommended daily dose (mmol/kg-bw/day) (TherapeuticCategory: vitamin B complex, lipotropic): 0.555

CCC1(C)OC(=O)N(C)C1=O (stereo unspecified)
maximum recommended daily dose (mmol/kg-bw/day) [9]: 0.255

NS(=O)(=O)c1cc(C2(O)NC(=O)c3ccccc32)ccc1Cl (stereo unspecified)
maximum recommended daily dose (mmol/kg-bw/day) (TherapeuticCategory: diuretic, antihypertensive): 0.00246
